Results: US7892767B2, “Phosphospecific chemokine receptor antibodies” (Washington University in St. Louis, priority 2005, dated 2011)

Columns and labels:
[1] = tested on: PDE4A-expressing Daoy cells; assay: Viable cell number, PDE4A-expressing Daoy cells; assay type: cell-based, human; settings: CXCL12 1 μg/ml, AMD 3465 2.5 μg/ml, Rolipram 200 μM
Method: PDE4A expression. U87 and Daoy cells (15,000 cells) were transiently transfected for 48 h with a plasmid encoding a transgene for the tet-off transactivator (tTA) alone (kind gift from Dr. Louis Muglia, Washington University School of Medicine, St. Louis, Mo.), a plasmid containing a transgene for tet-off regulated expression of phosphodiesterase 4A (PDE4A) alone (kind gift from Dr. James Cherry, Boston University, Boston, Mass.), or a combination of both plasmids, using lipofectamine (Invitrogen) according to the manufacturer's instructions. Plasmid DNA (2 μg) was mixed with lipofectamine (5 μl) per 35 mm^2 dish. Transfection proceeded for 9 hours prior to exchanging transfection media for αMEM supplemented with 10% FCS.

[2] = tested on: Daoy medulloblastoma cells; assay: Viable cell number by trypan blue exclusion, Daoy cells; assay type: cell-based, human; settings: CXCL12 1 μg/ml
Method: (§1) Brain tumor cell cultures. Cells were cultured in αMEM (Invitrogen, Carlsbad, Calif.) supplemented with 10% FCS (Biomedia, Foster City, Calif.) in the presence of penicillin streptomycin at 37° C. with 5% CO2.
(§2) Growth factor and drug treatment. Following serum-starvation for 24 hours, astrocytes, granule cells, U87 cells and Daoy cells, were treated with 1 μg/ml CXCL12 (PeproTech), […] AMD3465 (kind gift from Simon Fricker, AnorMED, Langley, BC, Canada) (200 μM Rolipram (Sigma), or 10 μM Forskolin (Sigma) as indicated.

[3] = tested on: astrocytes; assay: Cell number by trypan blue exclusion, primary astrocytes; assay type: cell-based, mouse; settings: CXCL12 1 μg/ml, 24 hours
Method: Primary astrocyte cultures. Primary astrocytes were cultured from 1 to 3-day-old BALB/C mice as described (57). The cortices were triturated into single cells in minimal essential medium (Invitrogen) containing 10% FCS, and then plated onto 75 cm^2 T-flasks (0.5 hemisphere/flask) for 10-14 days. Astrocytes were prepared by vigorous shaking of T-flasks overnight, removal of non-adherent cells, and isolation of the remaining adherent cells, with 0.1% trypsin.
as §2

[4] = tested on: U87 glioblastoma cells; assay: Viable cell number by trypan blue exclusion, U87 cells; assay type: cell-based, human; settings: CXCL12 1 μg/ml
Method: as §1, §2

CXCL12: chemokine ligand of CXCR4 (Peprotech)
effect on cell number [1]: no longer any benefit
increase in cell number [2]: greater than 2 fold
increase in cell number ([2]; serum-free): greater than 200%
effect on cell number [3]: tended to decrease
increase in cell number [4]: greater than 2 fold
increase in cell number ([4]; serum-free): greater than 200%
